Experimental data as given in patent publication US8207135B2, “Compositions for and methods of enhancing the immune response to antigens” (Wittycell, priority 2007, dated 2012).

How the values were obtained:
OVA specific IgG2a = assay: OVA-specific IgG2a ELISA after intramuscular immunization; format: in vivo, mouse; details: FIG. 12; IM, 50 μg OVA with 100 ng adjuvant, 14 days post-injection
Method: (§1) Mice (6 per group) were injected intramuscularly with 50 μg of OVA either alone or in combination with 100 ng of the indicated adjuvants (Freund's adjuvant was used as a positive control) as follows: • Group 1: […] of Ova with CFA/IFA (Positive control) • Group 2: 50 μg of Ova • Group 3: 50 μg of Ova and 100 ng of αGalCer • Group 4: 50 μg of Ova and 100 ng of PBS-11 • Group 5: 50 μg of Ova and 100 ng of PBS-14 • Group 6: 50 μg of Ova and 100 ng of PBS-57 • Group 7: 50 μg of Ova and 100 ng of PBS-96 At 14 days post-injection, blood samples were collected and ELISAs for IgG1 and IgG2a were performed using mouse monoclonal antibodies specific for OVA isotype IgG1 or IgG2a. The results are shown as the titer of the antibody in peripheral blood in ng/ml. The results for IgG1 are depicted in FIG. 11 and those for IgG2a are depicted in FIG. 12.

[1] = test system: CD8+ T cells responsive to OVA; assay: SIINFEKL pentamer assay of OVA-specific CD8+ T cells (FACS); format: in vivo, mouse; details: IM, days 0 and 14, blood day 21
Method: To verify the results obtained using the in vivo cytotoxicity assay described in the Examples above, similar experiments were performed and CD8+ T cell activation was determined by measuring the percentage of OVA-specific CD8+ T cells using a pentamer assay. Briefly, mice were injected intramuscularly with the indicated amounts of OVA and test adjuvant compound at either 1 μg or 100 ng per mouse, respectively on day 0 as follows:
Experiment A: • Group 1: 100 μl of PBS; • Group 2: 50 μg of Ova into 100 μl PBS; • Group 3: 50 μg of Ova with 1 μg αGalCer; • Group 4: 50 μg of Ova with 1 μg PBS-11 • Group 5: 50 μg of Ova with 1 μg PBS-14 • Group 6: 50 μg of Ova with 1 μg PBS-57 • Group 7: 50 μg of Ova with 1 μg PBS-96
Experiment B: • Group 1: 100 μl of PBS; • Group 2: 50 μg of Ova into 100 μl PBS; • Group 3: 50 μg of Ova with 100 ng αGalCer; • Group 4: 50 μg of Ova with 100 ng PBS-11 • Group 5: 50 μg of Ova with 100 ng PBS-14 • Group 6: 50 μg of Ova with 100 ng PBS-57 • Group 7: 50 μg of Ova with 100 ng PBS-96 A second injection was administered to the mice on day 14 and blood was collected from the mice on day 21. The lymphocytes were collected and analyzed by FACS analysis using H-2 K^b SIINFEKL pentamer and CD8 antibody to detect CD8+ T cells responsive to OVA.

[2] = test system: Ova-specific target cells; assay: in vivo cytotoxic specific cell lysis assay (CD8+ T cell response) in immunized mice; parameters: species or system mouse; details: for specific lysis of Ova-specific target cells in blood: Example 1, FIG. 1, 1 μg adjuvant with 50 μg Ova, day 11; for specific lysis of Ova-specific target cells in blood / average Ova-specific cytotoxic response / average Ova-specific cell lysis: IV; for average Ova-specific cytotoxic response: Example 2, FIG. 2; for average Ova-specific cytotoxic response / average OVA-specific cytotoxic response: 400 μg Ova with or without 1 μg adjuvant; for average Ova-specific cytotoxic response / average OVA-specific cytotoxic response / average Ova-specific cell lysis: day 11 blood; for average OVA-specific cytotoxic response: Example 2, FIG. 3, IM; for average Ova-specific cell lysis: Example 4, FIG. 6, 400 μg Ova with or without 1 μg adjuvant (PBS-57 new formulation); for enhancement of the CD8+ T cell response (specific lysis) at low doses: Example 5 Experiments A and B, FIGS. 7 and 8, 50 μg OVA with 100 ng or 10 ng adjuvant intramuscularly; for percentage of specific lysis of the target cells by CD8+ T cells: Example 5 Experiment B, FIG. 8, 50 μg OVA with 10 ng adjuvant intramuscularly
IFNγ = assay: in vivo IFNγ release in sera by ELISA 24 hours after inoculation; parameters: species or system C57BL/6 mice; details: Quantikine kit, FIG. 4
Method: To test the ability of the adjuvant test compounds to stimulate in vivo cytokine release, C57BL/6 mice were administered the compounds at different concentrations intravenously and the production of IFNγ in sera was measured 24 hours later by ELISA. Groups of 3 mice were inoculated intravenously (tail vein) on day 0 as follows: • Group 1: 100 μl of PBS alone • Group 2: 1 μg of αGalCer in 100 μl of PBS • Group 3: 100 ng of αGalCer in 100 μl of PBS • Group 4: 1 ng of αGalCer in 100 μl of PBS • Group 5: 0.1 ng of αGalCer in 100 μl of PBS • Group 6: 100 ng of αGalCer and 100 μg of Ova in 100 μl of PBS • Group 7: 1 μg of PBS-57 in 100 μl of PBS • Group 8: 100 ng of PBS-57 in 100 μl of PBS • Group 9: 1 ng of PBS-57 in 100 μl of PBS • Group 10: 0.1 ng of PBS-57 in 100 μl of PBS • Group 11: 100 ng of PBS-57 and 400 μg of Ova into 100 μl of PBS • Group 12: 1 μg of PBS-14 in 100 μl of PBS • Group 13: 100 ng of PBS-14 in 100 μl of PBS • Group 14: 1 ng of PBS-14 in 100 μl of PBS • Group 15: 0.1 ng of PBS-14 in 100 μl of PBS • Group 16: 100 ng of PBS-14 and 400 μg of Ova in 100 μl of PBS • Group 17: 1 μg of PBS-96 in 100 μl of PBS • Group 18: 100 ng of PBS-96 in 100 μl of PBS • Group 19: 1 ng of PBS-96 in 100 μl of PBS • Group 20: 0.1 ng of PBS-96 in 100 μl of PBS • Group 21: 100 ng of PBS-96 and 400 μg of Ova in 100 μl of PBS. 24 hours after inoculation, blood samples were collected from the mice and IFNγ levels were detected by ELISA kit. Two ELISA kits were used, Quantikine mouse IFNγ (RD systems) was used to test all samples and ELISA mIFNγ (Diaclone) was used to test group 1, 2, 3, 6, 7, 8, 11, 12, 13, 16, 17, 18 and 21. All sera were diluted before use in ELISA as follows:
Results are expressed as IFNγ concentration (pg/ml) in sera and take into account the dilution factor. FIG. 4 depicts results using the Quantikine mouse IFNγ kit by RD systems. FIG. 4A depicts results of IFNγ levels for mice immunized with PBS-57, FIG. 4B depicts results of IFNγ levels for mice immunized with PBS-14, FIG. 4C depicts results of IFNγ levels for mice immunized with PBS-96 and FIG. 4D depicts results of IFNγ levels for mice immunized with αGalCer. At 0.1 ng, all adjuvant candidates induce cytokine release, but mice immunized with αGalCer produced three- or four-fold less IFNγ than mice immunized with PBS-57, PBS-14 or PBS-96 (1540.57±397.53 pg/ml, 4398.05±880.86 pg/ml, 6669.31±1231.82 pg/ml, 5823.33±720.69 pg/ml respectively).
Another set of mice were used to compare the ability of adjuvant compounds to stimulate in vivo cytokine release by the method described above. Five groups of C57BL/6 mice were administered 100 ng of PBS-57, PBS-14, PBS-96, or PBS-11 in 100 μl PBS or 100 μl PBS alone intravenously. The production of IFNγ in sera was measured 24 hours later by ELISA. FIG. 5 depicts results for mice immunized with 100 ng of PBS-11, PBS-96, PBS-14 and PBS-57.

OVA-specific IgG1 = OVA-specific IgG1 ELISA after intramuscular immunization; format: in vivo, mouse; details: FIG. 11; IM, 50 μg OVA with 100 ng adjuvant, 14 days post-injection
Method: as §1

[3] = Example 6 Experiment A, FIG. 9, 50 μg Ova with 1 μg adjuvant
[4] = Example 6 Experiment B, FIG. 10, 50 μg Ova with 100 ng adjuvant

| SMILES | OVA specific IgG2a titer in peripheral blood (OVA specific IgG2a) | percentage of OVA specific CD8+ T cells [1, 3] | percentage of OVA specific CD8+ T cells [1, 4] | specific lysis of Ova-specific target cells in blood [2] | average Ova-specific cytotoxic response [2] | average OVA-specific cytotoxic response [2] | average Ova-specific cell lysis [2] | enhancement of the CD8+ T cell response (specific lysis) at low doses [2] | IFNγ concentration in sera (IFNγ; 0.1 ng IV) | IFNγ concentration in sera (IFNγ; 1 ng IV) | IFNγ concentration in sera (IFNγ; 100 ng IV) | IFNγ concentration in sera (IFNγ; 1 μg IV) | OVA-specific IgG1 titer in peripheral blood (OVA-specific IgG1) | percentage of specific lysis of the target cells by CD8+ T cells [2] |
| --- | --- | --- | --- | --- | --- | --- | --- | --- | --- | --- | --- | --- | --- | --- |
| CCCCCCCCCCCCCCCCCCCCCCCCCC(=O)N[C@@H](CO[C@H]1O[C@H](CNC(C)=O)[C@H](O)[C@H](O)[C@H]1O)[C@H](O)[C@H](O)CCCCCCCCCCCCCC [PBS-14] | about as well as Freund's adjuvant | enhanced the percentage of OVA specific CD8+ T cells | surprisingly much better at enhancing the CD8+ T cell response | resulted in cytotoxic lysis of Ova-specific target cells | 83.3±6.1% | 52.07±29.56% | 83.3±6.1% | unexpectedly better than other adjuvants | 6669.31 ± 1231.82 pg/mL | 7481.15 ± 3454.03 pg/mL | 19582.18 ± 3421.20 pg/mL | 16392.53 ± 5957.70 pg/mL | able to elicit a robust IgG1 titer |  |
| CCCCCCCC/C=C\CCCCCCCCCCCCCC(=O)N[C@@H](CO[C@H]1O[C@H](CNC(C)=O)[C@H](O)[C@H](O)[C@H]1O)[C@H](O)[C@H](O)CCCCCCCCCCCCCC [PBS-57, reference compound] |  | enhanced the percentage of OVA specific CD8+ T cells |  |  | 88.1±6.2% | 56.11±13.34% | 88.1±6.2% |  | 4398.05 ± 880.86 pg/mL | 11425.98 ± 833.04 pg/mL | 21432.76 ± 4312.76 pg/mL | 3353.45 ± 867.57 pg/mL | able to elicit a robust IgG1 titer | indistinguishable from the controls |
| CCCCCCCCCCCCCCCCCCCCCCCC(=O)N[C@@H](CO[C@H]1O[C@H](CNC(C)=O)[C@H](O)[C@H](O)[C@H]1O)[C@H](O)[C@H](O)CCCCCCCCCCCCCC [PBS-96] | about as well as Freund's adjuvant | enhanced the percentage of OVA specific CD8+ T cells | surprisingly much better at enhancing the CD8+ T cell response | resulted in cytotoxic lysis of Ova-specific target cells | 89.2±10.3% | 50.29±42.6% | 89.2±10.3% | unexpectedly better than other adjuvants | 5823.33 ± 720.69 pg/mL | 6271.95 ± 3737.53 pg/mL | 19679.89 ± 1443.48 pg/mL | 17720.11 ± 2869.97 pg/mL | able to elicit a robust IgG1 titer |  |
| CCCCCCCCCCCCCCCCCCCCCCCCCC(=O)N[C@@H](CO[C@H]1O[C@H](CO)[C@H](O)[C@H](O)[C@H]1O)[C@H](O)[C@H](O)CCCCCCCCCCCCCC [αGalCer, α-galactosyceramide, reference compound] |  | not as effective |  |  | 79.9±0.8% | −5.85±11.01% |  |  | 1540.57 ± 397.53 pg/mL | 3802.99 ± 586.02 pg/mL | 7714.37 ± 3529.07 pg/mL |  |  | indistinguishable from the controls |
